Where two headings read alike, the source gives them in different places.
Tests used:
[1] = test system: colon carcinogenesis in rats; assay: Tanaka et al. Carcinogenesis 1997 (Ref 11): ACF induced by 3 x AOM 15 mg/kg; type: in vivo, rat; conditions: from published data; for n° ACF/rat, ratio controls/treated: Hesperidin 1000 ppp, Auraptene 500 ppm
Description: (§1) Each value is the ratio between the value in the controls given a carcinogenic substance and the value found in animals treated with a preventive agent before or after the carcinogenic substance. The higher the value the greater the effectiveness of the agent.
(§2) The results given in Table 4 were established on the basis of published data indicated in references 2 to 12 in Table 5 below.

[2] = test system: colon carcinogenesis in rats; conditions: 3 x AOM 15 mg/kg, cited from earlier work; for ACF/rat: Hesperidin 1000 ppm (control 89 ± 17), Acetoxychavicol acet 100 ppm (control 118 ± 28), Auraptene (control 157 ± 21); for Crypt/ACF: controls 2.77 (Hesperidin), 2.54 (Acetoxychavicol acet), 2.91 (Auraptene)
[3] = test system: colon carcinogenesis in rats; conditions: agent wk-1 to +4, 2x15 mg AOM at wk 0, cited from earlier work; for Crypt/ACF: control 2.59 ± 0.14; for ACF/rat: control 228 ± 32
[4] = test system: colon carcinogenesis in rats; assay: Pereira-Khoury Cancer Lett. 1991 (Ref 4): agent wk-1 to +4, 2x15 mg AOM; type: in vivo, rat; conditions: from published data
Description: as §1, §2

[5] = test system: colon carcinogenesis in rats; conditions: AOM, then 4 wks, then agent 4 wks, cited from earlier work; for ACF/rat: Aspirin 0.2 g/kg (control 175), Piroxicam 0.2 (control 125), 13 cis Retinoic (control 140); for Large ACF: controls 55 (aspirin), 40 (piroxicam), 57 (retinoic)
[6] = test system: colon carcinogenesis in rats; assay: Wargovich et al. Int. J. Cancer 1995 (Ref 12): AOM, then 4 wks, then agent 4 wks; type: in vivo, rat; conditions: Ref 12 (Piroxicam line prints Ref 8); from published data
Description: as §1, §2

[7] = test system: colon carcinogenesis in rats; assay: Pereira et al. Carcinogenesis 1994 (Ref 5): agent day 1-35, AOM d. 7 & 14; type: in vivo, rat; conditions: from published data
Description: as §1, §2

[8] = test system: colon carcinogenesis in rats; conditions: agent day 1-35, AOM on d. 7 & 14, cited from earlier work; for Crypt/ACF: control 2.04 ± 0.04; for ACF/rat: control 26 ± 2.2
[9] = test system: colon carcinogenesis in rats; assay: Reddy et al. Carcinogenesis 1997 (Ref 6): inulin 10 wks, AOM wk 3 & 4; type: in vivo, rat; conditions: from published data
Description: as §1, §2

[10] = test system: colon carcinogenesis in rats; conditions: Inulin 10% for 10 wks, AOM at wk 3 & 4, cited from earlier work
[11] = test system: colon carcinogenesis in rats; assay: Takahashi et al. Carcinogenesis 1997 (Ref 10): ACF induced by 20x AOM, DHA with each dose; type: in vivo, rat; conditions: from published data
Description: as §1, §2

[12] = test system: colon carcinogenesis in rats; conditions: ACF induced by 10x PhIP, DHA 4 h before each dose, cited from earlier work
[13] = test system: colon carcinogenesis in rats; conditions: 20x AOM, 1 ml DHA with each dose, 12w, cited from earlier work
[14] = test system: colon carcinogenesis in rats; assay: Takahashi et al. Carcinogenesis 1997 (Ref 9): ACF induced by 10x PhIP, DHA before each dose; type: in vivo, rat; conditions: from published data
Description: as §1, §2

[15] = test system: colon carcinogenesis in rats; assay: Salim et al. Jpn J Cancer Res 88 (Ref 8): Vit. D3 post DMH 16 wks; type: in vivo, rat; conditions: from published data
Description: as §1, §2

[16] = test system: colon carcinogenesis in rats; conditions: Vit. D3 10 ppm post DMH for 16 wks, cited from earlier work

COc1ccc([C@@H]2CC(=O)c3c(O)cc(O[C@@H]4O[C@H](CO[C@@H]5O[C@@H](C)[C@H](O)[C@@H](O)[C@H]5O)[C@@H](O)[C@H](O)[C@H]4O)cc3O2)cc1O [Hesperidin]
n° ACF/rat, ratio controls/treated [1]: 2.6 | Crypts/ACF, ratio controls/treated [1]: 1.25 | ACF/rat [2]: 34 ± 5 | Crypt/ACF [2]: 2.22

C[C@]12CC[C@H](O)CC1=CC[C@@H]1[C@@H]2CC[C@]2(C)C(=O)CC[C@@H]12 [Dehydroepiandrosterone]
Crypt/ACF [3]: 2.44 ± 0.07 | ACF/rat [3]: 121 ± 19 | Crypts/ACF, ratio controls/treated [4]: 1.06 | n° ACF/rat, ratio controls/treated [4]: 1.9

Oxothiazolidine
Crypt/ACF [3]: 2.38 ± 0.08 | ACF/rat [3]: 121 ± 11 | Crypts/ACF, ratio controls/treated [4]: 1.09 | n° ACF/rat, ratio controls/treated [4]: 1.9

CC(=O)N[C@@H](CS)C(=O)O [N-acetylcysteine]
Crypt/ACF [3]: 2.35 ± 0.07 | ACF/rat [3]: 151 ± 21 | Crypts/ACF, ratio controls/treated [4]: 1.10 | n° ACF/rat, ratio controls/treated [4]: 1.5

CC(=O)Oc1ccccc1C(=O)O [Aspirin]
ACF/rat [5]: 100 | Large ACF [5]: 20 | Large ACF, ratio controls/treated [6]: 2.7 | n° ACF/rat, ratio controls/treated [6]: 1.7

CC1=C(CC(=O)O)c2cc(F)ccc2/C1=C\c1ccc([S+](C)[O-])cc1 (centres unmarked) [Sulindac]
Crypts/ACF, ratio controls/treated [7]: 1.10 | n° ACF/rat, ratio controls/treated [7]: 1.7 | Crypt/ACF [8]: 1.82 ± 0.14 | ACF/rat [8]: 15 ± 3.2

Inulin
Large ACF, ratio controls/treated [9]: 1.4 | n° ACF/rat, ratio controls/treated [9]: 1.5 | Large ACF ([10]; control 56): 39 | ACF/rat ([10]; control 120): 78

C=C[C@H](OC(C)=O)c1ccc(OC(C)=O)cc1 [Acetoxychavicol acet.]
n° ACF/rat, ratio controls/treated [1]: 1.7 | Crypts/ACF, ratio controls/treated [1]: 1.13 | Large ACF, ratio controls/treated [1]: 2.1 | Large ACF ([2]; Acetoxychavicol acet 100 ppm, control 60): 28 | ACF/rat [2]: 70 ± 10 | Crypt/ACF [2]: 2.24

CN1C(C(=O)Nc2ccccn2)=C(O)c2ccccc2S1(=O)=O [Piroxicam]
Crypts/ACF, ratio controls/treated [7]: 1.10 | n° ACF/rat, ratio controls/treated [7]: 1.6 | Crypt/ACF [8]: 1.84 ± 0.1 | ACF/rat [8]: 16 ± 2.8 | ACF/rat [5]: 45 | Large ACF [5]: 5 | Large ACF, ratio controls/treated [6]: 8 | n° ACF/rat, ratio controls/treated [6]: 2.8

CC/C=C\C/C=C\C/C=C\C/C=C\C/C=C\C/C=C\CCC(=O)O [DHA]
Crypts/ACF, ratio controls/treated [11]: 1.08 | Large ACF, ratio controls/treated [11]: 2.0 | n° ACF/rat, ratio controls/treated [11]: 1.6 | Crypts/ACF ([12]; control 2.69): 2.39 | ACF/rat ([12]; control 22): 8 | Crypt/ACF ([13]; control 3.2): 2.95 | Large ACF ([13]; control 114): 56 | ACF/rat ([13]; control 308 ± 64): 191 ± 40 | Crypts/ACF, ratio controls/treated [14]: 1.13 | n° ACF/rat, ratio controls/treated [14]: 2.8

CC1=C(/C=C/C(C)=C/C=C/C(C)=C\C(=O)O)C(C)(C)CCC1 [13 cis retinoic]
ACF/rat [5]: 70 | Large ACF [5]: 30 | Large ACF, ratio controls/treated [6]: 1.9 | n° ACF/rat, ratio controls/treated [6]: 2.0

C=C1CC[C@H](O)C/C1=C/C=C1\CCC[C@]2(C)[C@@H]([C@H](C)CCCC(C)C)CC[C@@H]12 [Vit. D3]
Large ACF, ratio controls/treated [15]: 1.8 | n° ACF/rat, ratio controls/treated [15]: 1.3 | Large ACF ([16]; control 120): 66 | ACF/rat ([16]; control 352): 269

CC(C)=CCC/C(C)=C/COc1ccc2ccc(=O)oc2c1 [Auraptene]
n° ACF/rat, ratio controls/treated [1]: 2.3 | Crypts/ACF, ratio controls/treated [1]: 1.33
